Test results taken from patent US8796320B2, “1,3,4-Oxadiazole-2-carboxamide compound” (General Incorporated Association Pharma Valley Project …, priority 2009, dated 2014).

What was measured:
[1] = system: STAT3; test: STAT3 transcription inhibition test (reporter gene method); type: cell-based; conditions: compound at 100 μM, STAT3 reporter HeLa stable cell line, oncostatin M 10 ng/mL, 4 hours; for inhibition at 100 µM: Homo sapiens, read-out: STAT3 transcription inhibitory activity (%)
Procedure: The inhibition of STAT3 transcription was evaluated by using STAT3 reporter HeLa stable cell line (Panomics Inc., catalog No. RC0003), a cell line for the reporter gene method, and performing the following method according to the appendix included therein.
STAT3, reporter HeLa stable cell line subcultured and maintained in a Dulbecco's modified Eagle's medium (DMEM) containing 10% fetal bovine serum, 100 units/mL penicillin, and 100 μg/mL streptomycin was inoculated at a concentration of 40000 cells/well to a 96-well plate (white) and attached to the plate by overnight incubation at 37° C. under 5% CO2. After addition of each evaluation compound adjusted to various concentrations (adjusted with a DMSO solution), the cells were precultured for 1 hour. Then, oncostatin M for activating STAT3 was added at a final concentration 10 ng/mL, and the cells were further cultured at 37° C. under 5% CO2 for 4 hours. Luciferase activity derived from the cells was determined using Steady-Glo Luciferase Assay System (Promega Corp.), and STAT3 transcriptional activity scores were calculated according to the following formula: STAT3 transcriptional activity score (%)=100×(Lchem−L0)/(LDMSO−L0) • L0: luminescence intensity obtained without stimulation with oncostatin M • Lchem: luminescence intensity obtained by the addition of a test sample • LDMSO: luminescence intensity obtained by the addition of only a solvent for dissolving a test sample
The test results were indicated in the rate of inhibition of STAT3 transcription by each compound at a concentration of 100 μM.

[2] = system: MDA-MB-468; test: MDA-MB-468 cell growth inhibitory activity; type: cell-based; conditions: Homo sapiens; compound at 20 μM; MDA-MB-468, 72 hours
Procedure: MDA-MB-468 diluted with phenol red-free DMEM/F-12 (GIBCO; 10% FBS, 20 units/ml penicillin/streptomycin) was inoculated at a concentration of 2000 cells/well to a 96-well plate (Greiner Bio-One) and cultured overnight at 37° C. in the presence of 5% CO2. Then, a test sample solution (containing 2 (v/v)% DMSO) adjusted to 10 μM was added thereto at a concentration of 10 μL/well and contacted with the cells at 37° C. for 72 hours in the presence of 5% CO2. Each well was washed three times with a medium. Then, after addition of 100 μL/well of a medium and 20 μL/well of CellTiter 96 AQueous, One Solution Reagent (Promega Corp.), the cells were incubated at 37° C. for 2 hours in the presence of 5% CO2. Absorbance at 495 nm was measured using Multiplate reader (Molecular Devices, Inc.), and the rate of inhibition of cell growth was calculated according to the following formula: Rate of inhibition of cell growth (%)=100−100×(Abschem−bkgd)/(AbsDMSO−bkgd) • Abschem: absorbance obtained by the addition of a test sample • AbsDMSO: absorbance obtained by the addition of only a solvent for test sample dissolution • bkgd: absorbance obtained by the addition of CellTiter 96 AQueous One Solution Reagent to a medium for cell culture
The test results were indicated in the rate of inhibition of cell growth by each compound at a concentration of 20 μM.

Q: How did the inhibition at 100 µM [1] turn out when `O=C(Nc1nnc(-c2ccco2)o1)c1ccc(-c2cc(Cl)cc(Cl)c2)o1` [Compound Ic-21, 5-(3,5-Dichlorophenyl)-N-[5-(2-furyl)-1,3,4-oxadiazol-2-yl]-2-furancarboxamide] was run?
A: 64%

Q: `O=C(Nc1nnc(-c2ccco2)o1)c1cccc(-c2ccccc2)c1` [Compound Ia-1, N-[5-(2-Furyl)-1,3,4-oxadiazol-2-yl]-3-biphenylcarboxamide] was tested. Which inhibition at 100 µM [1] did it give?
A: 60%

Q: How did the inhibition at 100 µM [1] turn out when `O=C(Nc1nnc(-c2ccco2)o1)c1cccc(-c2ccc3sccc3c2)c1` [Compound Ia-47, 3-(5-Benzothienyl)-N-[5-(2-furyl)-1,3,4-oxadiazol-2-yl]benzenecarboxamide] was run?
A: 58%

Q: What about the inhibition at 20 µM [2] of the same molecule?
A: 53%

Q: How did the inhibition at 100 µM [1] turn out when `COC(=O)c1ccc(-c2cccc(C(=O)Nc3nnc(-c4ccco4)o3)c2)cc1` [Compound Ia-69, N-[5-(2-Furyl)-1,3,4-oxadiazol-2-yl]-4′-methoxycarbonyl-3-biphenylcarboxamide] was run?
A: 53%

Q: And the inhibition at 20 µM [2]?
A: 69%

Q: Which results are given for `Cc1ccc(-c2cccc(C(=O)Nc3nnc(-c4ccco4)o3)c2)cc1` [Compound Ia-12, N-[5-(2-Furyl)-1,3,4-oxadiazol-2-yl]-4′-methyl-3-biphenylcarboxamide]?
A: inhibition at 100 µM [1]: 83%; inhibition at 20 µM [2]: 61%

Q: Which results are given for `O=C(Nc1nnc(-c2ccco2)o1)c1cccc(-c2ccc([N+](=O)[O-])cc2)c1` [Compound Ia-24, N-[5-(2-Furyl)-1,3,4-oxadiazol-2-yl]-4′-nitro-3-biphenylcarboxamide]?
A: inhibition at 100 µM [1]: 94%; inhibition at 20 µM [2]: 97%

Q: Which results are given for `Cc1cc(C#N)ccc1-c1cccc(C(=O)Nc2nnc(-c3ccco3)o2)c1` [Compound Ia-29, 4′-Cyano-N-[5-(2-furyl)-1,3,4-oxadiazol-2-yl]-2′-methyl-3-biphenylcarboxamide]?
A: inhibition at 100 µM [1]: 81%; inhibition at 20 µM [2]: 87%

Q: Which inhibition at 100 µM [1] does the source give for `O=C(Nc1nnc(-c2ccco2)o1)c1ccc(-c2cc([N+](=O)[O-])ccc2Cl)o1` [Compound Ic-19, 5-(2-Chloro-5-nitrophenyl)-N-[5-(2-furyl)-1,3,4-oxadiazol-2-yl]-2-furancarboxamide] here?
A: 56%

Q: For `O=C(Nc1nnc(-c2ccco2)o1)c1cc(-c2ccccc2)nc2nc(N3CCC(F)(F)CC3)sc12` [Compound Ib-32, 2-(4,4-Difluoropiperidino)-N-[5-(2-furyl)-1,3,4-oxadiazol-2-yl]-5-phenyl-7-thiazolo[4,5-b]pyridinecarboxamide], which inhibition at 100 µM [1] is on record?
A: 80%

Q: What about the inhibition at 20 µM [2] of the same molecule?
A: 86%

Q: For `O=C(Nc1nnc(-c2ccco2)o1)c1cccc(-c2ccc(-c3ccc(Cl)cc3)cc2)c1` [Compound Ia-77, 4″-Chloro-N-[5-(2-furyl)-1,3,4-oxadiazol-2-yl]-3-(p-terphenyl)carboxamide], which inhibition at 100 µM [1] is on record?
A: 80%

Q: What about the inhibition at 20 µM [2] of the same molecule?
A: 76%

Q: With `O=C(Nc1nnc(-c2ccco2)o1)c1cccc(-c2cnc3ccccc3c2)c1` [Compound Ia-99, N-[5-(2-Furyl)-1,3,4-oxadiazol-2-yl]-3-(3-quinolyl)benzenecarboxamide] as the molecule, how does the inhibition at 100 µM [1] read?
A: 78%

Q: And the inhibition at 20 µM [2]?
A: 55%

Q: Which inhibition at 100 µM [1] does the source give for `O=C(Nc1nnc(-c2ccco2)o1)c1ccc(-c2cccc(Cl)c2)o1` [Compound Ic-4, 5-(3-Chlorophenyl)-N-[5-(2-furyl)-1,3,4-oxadiazol-2-yl]-2-furancarboxamide] here?
A: 81%

Q: How did the inhibition at 100 µM [1] turn out when `O=C(Nc1nnc(-c2ccco2)o1)c1cc(-c2ccc(Cl)cc2)nc(-c2ccc(Br)cc2)c1` [Compound Ia-56, 2-(4-Bromophenyl)-6-(4-chlorophenyl)-N-[5-(2-furyl)-1,3,4-oxadiazol-2-yl]-4-pyridinecarboxamide] was run?
A: 87%

Q: What about the inhibition at 20 µM [2] of the same molecule?
A: 61%

Q: Which inhibition at 100 µM [1] does the source give for `O=C(Nc1nnc(-c2ccco2)o1)c1cc(-c2ccccc2)nc2nc(N3CCSCC3)sc12` [Compound Ib-30, N-[5-(2-Furyl)-1,3,4-oxadiazol-2-yl]-5-phenyl-2-(4-thiomorpholinyl)-7-thiazolo[4,5-b]pyridinecarboxamide] here?
A: > 100%

Q: What about the inhibition at 20 µM [2] of the same molecule?
A: 84%

Q: What does the source list for `O=C(Nc1nnc(-c2ccco2)o1)c1cccc(-c2ccc(-c3cccc4ccccc34)cc2)c1` [Compound Ia-82, N-[5-(2-Furyl)-1,3,4-oxadiazol-2-yl]-4′-(1-naphthyl)-3-biphenylcarboxamide]?
A: inhibition at 100 µM [1]: 54%; inhibition at 20 µM [2]: 75%

Q: For `O=C(Nc1nnc(-c2ccco2)o1)c1cccc(-c2ccc(C(=O)c3ccccc3)cc2)c1` [Compound Ia-19, 4′-Benzoyl-N-[5-(2-furyl)-1,3,4-oxadiazol-2-yl]-3-biphenylcarboxamide], which inhibition at 100 µM [1] is on record?
A: 55%

Q: What about the inhibition at 20 µM [2] of the same molecule?
A: 94%

Q: `O=C(Nc1nnc(-c2ccco2)o1)c1nc(-c2ccc(F)cc2)n2c1CCCCC2` [Compound Ic-26] was tested. Which “STAT3 transcription inhibitory activity (%)” value [1] did it give?
A: 58%

Q: How did the inhibition at 100 µM [1] turn out when `O=C(Nc1nnc(-c2ccco2)o1)c1cc(-c2cccc(Cl)c2)nc2nc(N3CCCCC3)sc12` [Compound Ib-2, 5-(3-Chlorophenyl)-N-[5-(2-furyl)-1,3,4-oxadiazol-2-yl]-2-piperidino-7-thiazolo[4,5-b]pyridinecarboxamide] was run?
A: 68%

Q: And the inhibition at 20 µM [2]?
A: > 100%

Q: `O=C(Nc1nnc(-c2ccco2)o1)c1cccc(-c2ccc(F)cc2)c1` [Compound Ia-10, 4′-Fluoro-N-[5-(2-furyl)-1,3,4-oxadiazol-2-yl]-3-biphenylcarboxamide] was tested. Which inhibition at 100 µM [1] did it give?
A: 97%

Q: Which results are given for `O=C(Nc1nnc(-c2ccco2)o1)c1cccc(-c2cccc([N+](=O)[O-])c2)c1` [Compound Ia-5, N-[5-(2-Furyl)-1,3,4-oxadiazol-2-yl]-3′-nitro-3-biphenylcarboxamide]?
A: inhibition at 100 µM [1]: 98%; inhibition at 20 µM [2]: 88%

Q: How did the inhibition at 100 µM [1] turn out when `CC(C)Oc1ccc(-c2ccc(-c3cccc(C(=O)Nc4nnc(-c5ccco5)o4)c3)cc2)cc1` [Compound Ia-81, N-[5-(2-Furyl)-1,3,4-oxadiazol-2-yl]-4″-isopropoxy-3-(p-terphenyl)carboxamide] was run?
A: 63%

Q: And the inhibition at 20 µM [2]?
A: 78%

Q: `O=C(Nc1nnc(-c2ccco2)o1)c1ccc(-c2ccc([N+](=O)[O-])cc2Cl)o1` [Compound Ic-14, 5-(2-Chloro-4-nitrophenyl)-N-[5-(2-furyl)-1,3,4-oxadiazol-2-yl]-2-furancarboxamide] was tested. Which inhibition at 100 µM [1] did it give?
A: 51%

Q: For `CCOC(=O)c1ccc(-c2ccc(C(=O)Nc3nnc(-c4ccco4)o3)o2)cc1` [Compound Ic-12, 5-(4-Ethoxycarbonylphenyl)-N-[5-(2-furyl)-1,3,4-oxadiazol-2-yl]-2-furancarboxamide], which inhibition at 100 µM [1] is on record?
A: 73%

Q: With `O=C(Nc1nnc(-c2ccco2)o1)c1cc(-c2cccs2)nc2nc(N3CCCCC3)sc12` [Compound Ib-27, N-[5-(2-Furyl)-1,3,4-oxadiazol-2-yl]-2-piperidino-5-(2-thienyl)-7-thiazolo[4,5-b]pyridinecarboxamide] as the molecule, how does the inhibition at 100 µM [1] read?
A: 67%

Q: And the inhibition at 20 µM [2]?
A: 82%

Q: How did the inhibition at 100 µM [1] turn out when `COc1ccc(-c2cccc(C(=O)Nc3nnc(-c4ccco4)o3)c2)cc1` [Compound Ia-16, N-[5-(2-Furyl)-1,3,4-oxadiazol-2-yl]-4′-methoxy-3-biphenylcarboxamide] was run?
A: 57%

Q: Which inhibition at 100 µM [1] does the source give for `Cc1ccc(-c2cccc(C(=O)Nc3nnc(-c4ccco4)o3)c2)o1` [Compound Ia-34, N-[5-(2-Furyl)-1,3,4-oxadiazol-2-yl]-3-(5-methyl-2-furyl)benzenecarboxamide] here?
A: 78%

Q: Which inhibition at 100 µM [1] does the source give for `O=C(Nc1nnc(-c2ccco2)o1)c1cccc(-c2ccc3c(c2)OCO3)c1` [Compound Ia-42, N-[5-(2-Furyl)-1,3,4-oxadiazol-2-yl]-3-(3,4-methylenedioxyphenyl)benzenecarboxamide] here?
A: 88%

Q: Which inhibition at 100 µM [1] does the source give for `Cc1oc(-c2ccccc2)cc1C(=O)Nc1nnc(-c2ccco2)o1` [Compound Ic-22, N-[5-(2-Furyl)-1,3,4-oxadiazol-2-yl]-2-methyl-5-phenyl-3-furancarboxamide] here?
A: 65%

Q: With `O=C(Nc1nnc(-c2ccco2)o1)c1cccc(-c2ccc(CCN3CCOCC3)cc2)c1` [Compound Ia-90, N-[5-(2-Furyl)-1,3,4-oxadiazol-2-yl]-4′-(2-morpholinoethyl)-3-biphenylcarboxamide] as the molecule, how does the inhibition at 100 µM [1] read?
A: 97%
